This experiment has as its target T1, Protein kinase C zeta type (Rattus norvegicus, UniProt P09217).
T1 sequence (P09217 whole entry): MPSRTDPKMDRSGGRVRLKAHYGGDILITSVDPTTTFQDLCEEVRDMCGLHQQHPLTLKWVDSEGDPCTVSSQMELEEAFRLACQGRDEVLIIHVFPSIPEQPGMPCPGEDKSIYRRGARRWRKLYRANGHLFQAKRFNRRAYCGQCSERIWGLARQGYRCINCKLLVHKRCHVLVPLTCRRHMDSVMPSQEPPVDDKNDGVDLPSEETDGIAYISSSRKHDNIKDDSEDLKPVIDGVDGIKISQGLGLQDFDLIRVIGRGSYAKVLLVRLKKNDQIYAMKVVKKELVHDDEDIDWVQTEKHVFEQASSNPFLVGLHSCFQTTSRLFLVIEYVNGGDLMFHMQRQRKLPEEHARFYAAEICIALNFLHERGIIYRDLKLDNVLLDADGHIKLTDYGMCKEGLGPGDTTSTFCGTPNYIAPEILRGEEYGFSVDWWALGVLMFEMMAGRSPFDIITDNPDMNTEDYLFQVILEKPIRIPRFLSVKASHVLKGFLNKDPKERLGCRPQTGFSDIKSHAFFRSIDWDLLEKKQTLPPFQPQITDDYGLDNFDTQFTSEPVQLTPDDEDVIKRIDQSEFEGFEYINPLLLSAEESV
Nature of the experiment: Inhibition of Protein kinase C isolated from rat brain.

The structures appear in SMILES notation. pIC50: −log10 of the molar value.

As to `CCCCCCCCCCC#Cc1cccc([C@@H](O)[C@@H](N)CO)c1`, the pIC50 is 4.65. For `CCCCCCCCCCCCC/C=C/[C@@H](O)[C@@H](N)CO` [(E,2S,3R)-2-azanyloctadec-4-ene-1,3-diol] the value was 4.63.

The record behind these values is BindingDB's records for doi:10.7270/Q2WS8WDS (n/a, 1995).
